Legend:
[1] = Pharmacokinetics in mice after single oral dosing (blood/plasma and liver exposure); assay type: in vivo; conditions: 20 mg/kg single oral dose
Method: The pharmacokinetics of the compounds was assessed in mice after single dosing and oral administrations. Blood/plasma and liver exposure was measured via LC-MS.
The study design was as follows: • Animals: C57/bl6/J (Janvier) males • Diet: standard rodent chow • Dose: 20 mg/kg • Animal handling: animals were withdrawn from food at least 12 h before administration • Design: single dose oral administration, n=3 animals per group • Sacrifice: at stated time point (4, 12 or 24 h) after administration • Bioanalytics: LC-MS of liver and blood/plasma samples

LXRα [2] = target: T1, LXRα (Homo sapiens, UniProt Q13133); assay: LXR Gal4 reporter transient transfection assay (mammalian two-hybrid, HEK293), LXRα; assay type: cell-based; set-up: expressed in transfected cells; host or cells: HEK293; conditions: full length (FL) LXRα, HEK293; read-out: FL-M2H Gal4α
T1 sequence (Q13133 1-447): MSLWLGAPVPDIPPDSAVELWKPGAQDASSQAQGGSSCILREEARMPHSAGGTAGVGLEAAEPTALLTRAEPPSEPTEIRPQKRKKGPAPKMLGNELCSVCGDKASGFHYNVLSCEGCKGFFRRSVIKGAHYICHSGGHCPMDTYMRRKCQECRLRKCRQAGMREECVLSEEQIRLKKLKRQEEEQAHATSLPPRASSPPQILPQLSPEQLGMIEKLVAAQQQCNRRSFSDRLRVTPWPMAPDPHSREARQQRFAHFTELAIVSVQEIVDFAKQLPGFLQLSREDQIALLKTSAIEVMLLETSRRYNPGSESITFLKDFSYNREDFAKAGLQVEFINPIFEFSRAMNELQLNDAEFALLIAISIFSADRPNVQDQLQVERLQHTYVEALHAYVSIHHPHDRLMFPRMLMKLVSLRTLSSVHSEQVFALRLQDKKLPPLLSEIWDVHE
Method: (§1) LXRα and LXRβ activity status was determined via detection of interaction with coactivator and corepressor proteins in mammalian two-hybrid experiments (M2H). For this, via transient transfection the full length (FL) proteins of LXRα (amino acids 1-447; NP005684; SEQ ID NO:1) or LXRβ-(amino acids 1-461; NP009052; SEQ ID NO:2) or the ligand-binding domains (LBD) of LXRα (amino acids 155-447 SEQ ID NO:3) or LXRβ (amino acids 156-461; SEQ ID NO:4) were expressed from pCMV-AD (Stratagene) as fusions to the transcriptional activation domain of NFkB. As cofactors, domains of either the steroid receptor coactivator 1 (SRC1; amino acids 552-887; SEQ ID NO:5) or of the corepressor NCoR (amino acids 1906-2312; NP006302; SEQ ID NO:6) were expressed as fusions to the DNA binding domain of the yeast transcription factor GAL4 (from pCMV-BD; Stratagene). Interaction was monitored via activation of a coexpressed Firefly Luciferase Reporter gene under control of a promoter containing repetitive GAL4 response elements (vector pFRLuc; Stratagene). Transfection efficiency was controlled via cotransfection of constitutively active pRL-CMV Renilla reniformis luciferase reporter (Promega). HEK293 cells were grown in minimum essential medium (MEM) with 2 mM L-glutamine and Earle's balanced salt solution supplemented with 8.3% fetal bovine serum, 0.1 mM non-essential amino acids, 1 mM sodium pyruvate, at 37° C. in 5% CO2. 3.5×10^4 cells/well were plated in 96-well cell culture plates in growth medium supplemented with 8.3% fetal bovine serum for 16-20 h to ˜90% confluency. For transfection, medium was taken off and LXR and cofactor expressing plasmids as well as the reporter plasmids are added in 30 μL OPTIMEM/well including polyethylene-imine (PEI) as vehicle. Typical amounts of plasmids transfected/well: pCMV-AD-LXR (5 ng), pCMV-BD-cofactor (5 ng), pFR-Luc (100 ng), pRL-CMV (0.5 ng). Compound stocks were prepared in DMSO, prediluted in MEM to a total volume of 120 μL, and added 4 h after addition of the transfection mixture (final vehicle concentration not exceeding 0.2%). Cells were incubated for additional 16 h, lysed for 10 min in 1×Passive Lysis Buffer (Promega) and Firefly and Renilla luciferase activities were measured sequentially in the same cell extract using buffers containing D-luciferine and coelenterazine, respectively. Measurements of luminescence were done in a BMG-luminometer.
(§2) The potencies of Compound 21/3 and its analog, Compound pre-6/3, against LXRα and LXRβ were evaluated in biochemical binding assays, cellular mammalian two-hybrid (M2H) interaction assays evaluating nuclear receptor co-repressor (NCOR) recruitment, and cellular reporter assays evaluating transcriptional activity (Table 5).

ABCA1 reporter in HT-29 = assay: HT-29 ABCA1 reporter assay; assay type: cell-based; conditions: Homo sapiens; HT-29, mean ± SD
Method: as §2

LXRα [3] = target: T1, LXRα; assay: Biochemical binding assay LXRα; conditions: mean ± SD; read-out: LXα binding EC50
Method: as §2

LXRβ [4] = target: T2, LXRβ (Homo sapiens, UniProt P55055); assay: Biochemical binding assay LXRβ; conditions: mean ± SD
T2 sequence (P55055 1-460): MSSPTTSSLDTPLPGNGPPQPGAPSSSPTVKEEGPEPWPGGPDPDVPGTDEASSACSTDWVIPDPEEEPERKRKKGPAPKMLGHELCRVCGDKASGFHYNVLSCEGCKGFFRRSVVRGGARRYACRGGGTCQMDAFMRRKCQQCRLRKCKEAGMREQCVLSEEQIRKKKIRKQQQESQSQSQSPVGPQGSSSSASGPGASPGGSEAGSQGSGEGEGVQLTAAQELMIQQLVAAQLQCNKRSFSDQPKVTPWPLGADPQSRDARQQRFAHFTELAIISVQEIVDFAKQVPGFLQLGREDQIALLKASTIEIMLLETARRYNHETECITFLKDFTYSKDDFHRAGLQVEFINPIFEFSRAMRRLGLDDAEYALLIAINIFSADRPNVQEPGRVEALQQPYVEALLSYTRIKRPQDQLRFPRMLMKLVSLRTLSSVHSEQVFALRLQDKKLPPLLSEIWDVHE
Method: as §2

LXRβ [5] = target: LXRβ (Homo sapiens, UniProt P55055); assay: LXR Gal4 reporter transient transfection assay (mammalian two-hybrid, HEK293), LXRβ; assay type: cell-based; conditions: HEK293, NCOR recruitment, mean ± SD; read-out: HEK293 LXRβ/NCOR recruitment (M2H) EC50
In short: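 Mammalian two-hybrid read-out of LXR–coactivator (SRC1) or corepressor (NCoR) interaction: firefly luciferase under GAL4 response elements, normalised via Renilla co-transfection. LXRα/β full-length or LBD fusions expressed transiently in HEK293; compounds (final DMSO ≤0.2%) given 4 h after transfection for 16 h before lysis.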
Target sequence in this assay (O75376 1906-2312 partner, one chain of several): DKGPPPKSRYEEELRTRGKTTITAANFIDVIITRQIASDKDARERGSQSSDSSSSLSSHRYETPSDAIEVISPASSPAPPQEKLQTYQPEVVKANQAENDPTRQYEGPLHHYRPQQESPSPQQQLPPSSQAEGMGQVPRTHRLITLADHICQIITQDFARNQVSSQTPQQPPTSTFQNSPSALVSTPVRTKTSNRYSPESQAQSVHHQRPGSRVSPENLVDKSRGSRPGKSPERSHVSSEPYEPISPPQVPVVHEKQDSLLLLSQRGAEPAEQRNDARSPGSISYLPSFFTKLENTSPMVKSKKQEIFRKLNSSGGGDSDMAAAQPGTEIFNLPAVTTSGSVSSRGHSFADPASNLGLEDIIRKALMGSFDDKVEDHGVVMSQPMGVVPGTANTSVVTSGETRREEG

[6] = system: SREBP1c reporter in HepG2; assay: HepG2 SREBP1c reporter assay; assay type: cell-based; conditions: Homo sapiens; HepG2, mean ± SD
Method: as §2

LXRα [7] = target: T3, LXRα (Homo sapiens, UniProt Q13133); assay: LXR Gal4 reporter transient transfection assay (mammalian two-hybrid, HEK293), LXRα; assay type: cell-based; conditions: HEK293, NCOR recruitment, mean ± SD; read-out: HEK293 LXRα/NCOR recruitment (M2H) EC50
T3 construct: full length (FL) proteins of LXRα (amino acids 1-447); NP005684
Method: as §1, §2

Cc1ccc(S(=O)(=O)n2c(-c3cccc(-c4ccc(C(=O)O)cc4Cl)c3)c(-c3ccsc3C#N)c3cc(F)ccc32)cc1 [3/48]
liver exposure ([1]; time point 12 h): A (<300 nM)
blood/plasma exposure (below LLOQ) ([1]; time point 12 h, number is the LLOQ): (1.2 ng/mL)

Cc1ccc(S(=O)(=O)n2c(-c3cccc(-c4ccc(C(=O)O)cc4)c3)c(-c3ccsc3C#N)c3cc(F)ccc32)cc1 [5/3]
blood/plasma exposure ([1]; time point 4 h): C (100 nM to <300 nM)
liver exposure ([1]; time point 4 h): C (1 μM to ≤3 μM)
liver/blood ratio ([1]; time point 4 h): C (10 to ≤30)

N#Cc1sccc1-c1c(-c2cccc(-c3ccc(C(=O)O)cc3Cl)c2)n(S(=O)(=O)c2ccc(C(F)F)cc2)c2ccc(F)cc12 [11/17]
EC50 (LXRα [2]): < 100 nM

N#Cc1cccc(C#N)c1-c1c(-c2cccc([C@H]3CC[C@H](C(=O)O)CC3)c2)n(S(=O)(=O)c2ccc(C(F)F)cc2)c2ccc(F)cc12 [11/62]
EC50 (LXRα [2]): < 100 nM

Cc1ccc(S(=O)(=O)n2c(-c3cccc(-c4ccc(C(=O)O)cc4)c3)c(-c3ccsc3C#N)c3cc(F)ccc32)cc1C [23/2]
blood/plasma exposure ([1]; time point 4 h): B (300 nM to ≤1 μM)
liver exposure ([1]; time point 4 h): D (>3 μM)
liver/blood ratio ([1]; time point 4 h): C (10 to ≤30)

CS(=O)(=O)NC(=O)c1ccc(-c2cccc(-c3c(-c4c(C#N)cccc4C#N)c4cc(F)ccc4n3S(=O)(=O)c3ccc(C(F)F)cc3)c2)c(Cl)c1 [32/5]
EC50 (LXRα [2]): < 100 nM

N#Cc1cccc(C#N)c1-c1c(-c2cccc(-c3ccc(C(=O)NCC(=O)O)cc3Cl)c2)n(S(=O)(=O)c2ccc(C(F)F)cc2)c2ccc(F)cc12 [Compound 21/3]
IC50 (ABCA1 reporter in HT-29): 15 ± 4 nM
EC50 (LXRα [3]): 7 ± 16 nM
EC50 (LXRβ [4]): 15 ± 3 nM
EC50 (LXRβ [5]): 11 ± 19 nM
IC50 [6]: 7 ± 5 nM
EC50 (LXRα [7]): 8 ± 7 nM

N#Cc1cccc(C#N)c1-c1c(-c2cccc(-c3ccc(C(=O)O)cc3Cl)c2)n(S(=O)(=O)c2ccc(C(F)F)cc2)c2ccc(F)cc12 [pre-6/3]
IC50 (ABCA1 reporter in HT-29): 0.7 ± 0.1 nM
EC50 (LXRα [3]): 14 ± 5 nM
EC50 (LXRβ [4]): 17 ± 7 nM
EC50 (LXRβ [5]): 0.4 ± 0.2 nM
IC50 [6]: 0.2 ± 0.1 nM
EC50 (LXRα [7]): 0.2 ± 0.1 nM
